Consider 31 molecules from patent publication US6531469B1, “Substituted 1-(4-piperidyl)-3-(aryl) isothioureas their preparation and their therapeutic application” (Pierre Fabre Medicament, priority 1999, dated 2003).

The subject of series [1] is infused isolated guinea pig heart. The series is described as follows: Inhibition of diastolic contracture induced by global ischemia of infused isolated guinea pig heart (Langendorff). Particulars: global ischemia 50 min, relative to vehicle group; for inhibition at 1 µM: Cavia porcellus, 50 min. From the text: (§1) The compounds of the present invention of formula I and the therapeutically acceptable salts thereof have advantageous pharmacological properties. These derivatives are active in vitro, on cardiomyocytes, by inhibiting the diastolic contracture induced with veratrine, on rat isolated left atrium. They also abolish the diastolic contracture induced by the global ischemia of infused isolated guinea pig heart according to the Langendorff technique. These compounds are also active in vivo, in reinfusion ischemia in anesthetized rabbits: they inhibit the electrical disturbances in the ECG which are caused by reinfusion ischemia, without any appreciable hemodynamic effect, and are not cardiac depressants. Such compounds are useful preventively or curatively in the treatment of coronaropathies, cardiac and cerebral ischemia in all their forms and in the treatment of atherosclerosis, cardiac insufficiency, pain, migraine and epilepsy.
2) Inhibition of the diastolic contracture induced by the global ischemia of infused isolated guinea pig heart is carried out according to the technique described by Le Grand B. et al. (Am. J. Physiol. 269, H533-H540 (1995)). The guinea pig hearts collected are infused with a modified Krebs solution and, after stabilization for 20 minutes, the test compound dissolved in water or in aqueous 1% DMSO solution is added. After 15 minutes, global ischemia is induced by stopping the coronary infusion for 50 minutes, followed by reinfusion for 1 h. The inhibition of ischemic contracture, in the presence of the compounds of the present invention, is measured relative to that obtained in the vehicle group. The results are given in Table II by way of non-limiting example at a concentration of 1 μM.

In the next series the test system is anesthetized rabbits. Description: Ischemia-reinfusion in anesthetized rabbits, oral route. It is filed as in vivo. Particulars: anesthetized rabbit.
Excerpt: as §1
The compounds of the present invention are also active via the oral route in the test of ischemia-reinfusion in anesthetized rabbits, according to the method of Verscheure et al. (J. Cardiovasc Pharmacol (1995) 25 p 126-133). The results for the compounds of Examples 6 and 14 are given in Table III below, by way of non-limiting example: […]

In the next series the test system is rat isolated left atrium. Description: Inhibition of the contracture with veratrine, rat isolated left atrium. Particulars: veratrine-induced contracture, 10^−7 M of test compound.
Excerpt: as §1
1) Inhibition of the contracture with veratrine, of rat isolated left atrium, was carried out according to the technique of Le Grand et al. (Naunyn—Schmiedeberg's Arch Pharmacol (1993) 348 p 184-190). The results are given in Table I. The percentages of inhibition are relative to a concentration of 10^−7 M of test compound.

Counter-ions that a name gives are not always drawn.

In general, inhibition refers to the percentage by which the read-out fell short of the control. A higher inhibition goes with a strong effect. For orientation: melting point means the temperature, or range, at which the solid turns liquid. What is called % inhibition is the share of the control response that was lost under treatment. Read a high % inhibition as a response far below the control.

Molecule `CN(C1=Nc2ccccc2CS1)C1CCN(CCCOCCc2ccc(F)c(F)c2)CC1.O=C(O)/C=C/C(=O)O` [Example 14, N-Methyl-N-[1-[3-[2-(3,4-difluorophenyl)ethoxy]propyl]-4-piperidyl]-4H-3,1-benzothiazin-2-amine Hydrogen Fumarate] came in with a melting point of 162 °C. Further, in series [1], 1 µM produced 77% inhibition. Further, in the series on anesthetized rabbits (0.63 mg/kg p.o.), the “% change in arterial pressure” value came out at 3%, the “% change in heart rate” value was −5%, the “% inhibition of over-increase of ST segment” value came to 83% and the “Number of animals with reinfusion arrhythmia” value (“Number of animals” for short) was 0/5. For the same molecule, the inhibition at 0.1 µM with rat isolated left atrium was determined as 32%.

For the molecule `COc1ccc(CCOCCCN2CCC(N(C)C3=Nc4ccccc4CS3)CC2)cc1.O=C(O)/C=C/C(=O)O`, the melting point turned out to be 155 °C.

On to `CN(c1nc2ccccc2s1)C1CCN(CC(O)COc2ccc(F)cc2)CC1` (stereo not drawn) [Sabeluzole], for which, in the series on anesthetized rabbits (10 mg/kg p.o.), the “% change in arterial pressure” value is given as 12%, the “% change in heart rate” value worked out at 0%, the “% inhibition of over-increase of ST segment” value was 34% and the “Number of animals” value was 3/4. For the same molecule, in the series with rat isolated left atrium, the inhibition at 0.1 µM turned out to be 5%.

The molecule `COc1ccc(COCCCCN2CCC(N(C)C3=Nc4ccccc4CS3)CC2)cc1.O=C(O)/C=C/C(=O)O` registered a melting point of 165 °C.

`CN(C1=Nc2ccccc2CS1)C1CCN(CCOCc2ccccc2)CC1.O=C(O)/C=C/C(=O)O` returned a melting point of 166 to 167 °C.

On to `CN(C1=Nc2ccccc2CS1)C1CCN(CCCOCCCc2ccc(F)cc2)CC1.O=C(O)/C=C/C(=O)O`, for which the melting point stood at 176 °C.

`COc1ccc(CCOCC(O)CN2CCC(N(C)C3=Nc4ccccc4CS3)CC2)cc1.O=C(O)/C=C/C(=O)O` (stereo not drawn) gave a melting point of 132 to 133 °C.

`CN(C1=Nc2ccccc2CS1)C1CCN(CCCOCCc2ccc(F)cc2)CC1` (as salt: fumarate) [Example 6, N-Methyl-N-[1-[3-[2-(4-fluorophenyl)ethoxy]propyl]-4-piperidyl]-4H-3,1-benzothiazin-2-amine Hydrogen Fumarate] displayed a melting point of 163 to 164 °C.

On to `CN(c1nc2ccccc2s1)C1CCN(CCCCOc2ccc(F)cc2)CC1` [Example R56865, N-(1-(4-(4-fluorophenoxy)butyl)4-piperidyl)-N-methyl-2-benzothiazolamine], for which, in the series with anesthetized rabbits (2.5 mg/kg p.o.), the “% change in arterial pressure” value was 27%, the “% change in heart rate” value was 0%, the “% inhibition of over-increase of ST segment” value was 0% and the “Number of animals” value is on record as 2/5. In the series with anesthetized rabbits (10 mg/kg p.o.), the “% change in arterial pressure” value is given as 15%, the “% change in heart rate” value stood at 5%, the “% inhibition of over-increase of ST segment” value is 100% and the “Number of animals” value is given as 0/5. In the series on rat isolated left atrium, this molecule gave an inhibition at 0.1 µM of 32%.

`CS(=O)(=O)c1cc(C(=O)NC(=N)N)ccc1N1CCCCC1.Cl` [HOE 694, 3-(Methylsulfonyl-4-piperidinobenzoyl)guanidine hydrochloride, reference compound]: the “% diastolic contracture inhibition at 1 μM” value in series [1] stood at 17%.

`CN(C1=Nc2ccccc2CS1)C1CCN(CCCOCCc2ccc(F)cc2)CC1` [Example 6, N-Methyl-N-[1-[3-[2-(4-fluorophenyl)ethoxy]propyl]-4-piperidyl]-4H-3,1-benzothiazin-2-amine Hydrogen Fumarate] had an inhibition at 1 µM in series [1] of 79%. Further, in the series with anesthetized rabbits (0.63 mg/kg p.o.), the “% change in arterial pressure” value is recorded as 0%, the “% change in heart rate” value is −7%, the “% inhibition of over-increase of ST segment” value is 42% and the “Number of animals” value is 3/5. In the series with rat isolated left atrium, this molecule yielded an inhibition at 0.1 µM of 41%.

In turn, `COc1ccc(CCOCCN2CCC(N(C)C3=Nc4ccccc4CS3)CC2)cc1.O=C(O)/C=C/C(=O)O` came in with a melting point of 152 to 153 °C.

Molecule `CN(C1=Nc2ccccc2CS1)C1CCN(CCOCCc2ccc(F)cc2)CC1` (as salt: fumarate) [Example 9, N-Methyl-N-[1-[2-[2-(4-fluorophenyl)ethoxy]ethyl]-4-piperidyl]-4H-3,1-benzothiazin-2-amine] showed a melting point of 145 to 146 °C.

The molecule `COc1cc2c(c(OC)c1OC)N=C(N(C)C1CCN(CCCOCCc3ccc(F)cc3)CC1)SC2.O=C(O)/C=C/C(=O)O` had a melting point of 68 °C.

Regarding `CN(C1=Nc2ccccc2CS1)C1CCN(CCCCOCc2ccc(F)c(F)c2)CC1.O=C(O)/C=C/C(=O)O`, the melting point amounted to 170 °C.

In the case of `CN(C1=Nc2ccccc2CS1)C1CCN(CCCCCOCc2ccc(F)c(F)c2)CC1.O=C(O)/C=C/C(=O)O`, the melting point stood at 169 °C.

The molecule `COc1ccc(CCOCCCCN2CCC(N(C)C3=Nc4ccccc4CS3)CC2)cc1.O=C(O)/C=C/C(=O)O` gave a melting point of 156 °C.

Molecule `Fc1ccc(CCOCCCN2CCC(NC3=Nc4ccccc4CO3)CC2)cc1` (as salt: hydrochloride) (hydrate or solvate) [Example 30, N-[1-[3-[2-(4-Fluorophenyl)ethoxypropyl]-4-piperidyl]-4H-3,1-benzoxazin-2-amine Dihydrochloride Hydrate] showed a melting point of 158 to 159 °C.

`COc1ccc(COCCCCCN2CCC(N(C)C3=Nc4ccccc4CS3)CC2)cc1.O=C(O)/C=C/C(=O)O` had a melting point of 163 °C.

As to `CN(C1=Nc2ccccc2CS1)C1CCN(CCCOCc2ccc(F)c(F)c2)CC1.O=C(O)/C=C/C(=O)O`, the melting point was 168 °C.

In turn, `CN(C1=Nc2ccccc2CS1)C1CCN(CCCCCOCc2ccc(F)cc2)CC1.O=C(O)/C=C/C(=O)O` showed a melting point of 167 °C.

`CN(C1=Nc2ccc(Cl)cc2CS1)C1CCN(CCCOCCc2ccc(F)cc2)CC1.O=C(O)/C=C/C(=O)O` came in with a melting point of 167 to 170 °C.

For `CN(C1=Nc2ccccc2CS1)C1CCN(CCOCc2ccc(F)cc2)CC1.O=C(O)/C=C/C(=O)O`, the melting point is 160 to 161 °C.

For the molecule `CN(C1=Nc2ccccc2CS1)C1CCN(CCCOCc2ccc(F)cc2)CC1.O=C(O)/C=C/C(=O)O`, the melting point was in the range of 163 to 164 °C.

As to “N-Methyl-N-[1-[2-hydroxy-3-(4-fluorophenylmethoxy)-propyl]-4-piperidyl]-4H-3,1-benzothiazin-2-amine Hemifumarate [Example 23]”, in the series with rat isolated left atrium, the “% inhibition at 10^−7 M” value is on record as 35%.

Turning to `CN(C1=Nc2ccccc2CS1)C1CCN(CCCOCCc2ccccc2)CC1.O=C(O)/C=C/C(=O)O`, the melting point amounted to 166 °C.

Turning to `Cc1ccc2c(c1)CSC(N(C)C1CCN(CCCOCCc3ccc(F)cc3)CC1)=N2.O=C(O)/C=C/C(=O)O`, the melting point was 169 to 172 °C.

In the case of `CN(C1=Nc2ccccc2CS1)C1CCN(CCCCOCCc2ccc(F)c(F)c2)CC1.O=C(O)/C=C/C(=O)O`, the melting point came to 163 °C.

Molecule `CN(C1=Nc2ccccc2CS1)C1CCN(CCCCOc2ccc(F)c(F)c2)CC1` [Control, N-Methyl-N-[1-[4-(3,4-difluorophenoxy)butyl]-4-piperidyl)-4H-3,1-benzothiazin-2-amine] registered an inhibition at 1 µM in series [1] of 48%. In the series with anesthetized rabbits (0.63 mg/kg p.o.), the “% change in arterial pressure” value is 5%, the “% change in heart rate” value was 0%, the “% inhibition of over-increase of ST segment” value is 31% and the “Number of animals” value is given as 1/5. The molecule further registered an inhibition at 0.1 µM in the series with rat isolated left atrium of 26%.

`COc1ccc(COCCCN2CCC(N(C)C3=Nc4ccccc4CS3)CC2)cc1.O=C(O)/C=C/C(=O)O` had a melting point of 166 °C.

In turn, `CN(C1=Nc2ccccc2CS1)C1CCN(CCCCOCCc2ccc(F)cc2)CC1.O=C(O)/C=C/C(=O)O` [Example 5, N-Methyl-N-[1-[4-[2-(4-fluorophenyl)ethoxy]butyl]-4-piperidyl]-4H-3,1-benzothiazin-2-amine Hydrogen Fumarate] returned a melting point of 173 to 174 °C. 0.1 µM produced 63% inhibition with rat isolated left atrium.
